ChEMBL document CHEMBL3745645, “Synthesis, in vitro antitumor activity, dihydrofolate reductase inhibition, DNA intercalation and structure-activity relationship studies of 1,3,5-triazine analogues” (Bioorg Med Chem Lett, 2016)
Active and inactive are the calls of the source. The calls are words filed in the database; no cut-off is given here.

Legend:
Format in all cases: functional
NCI-H460 = experiment: Cytotoxicity against human NCI-H460 cells at 10 uM after 48 hrs by SRB assay; conditions: NCI-H460, 48 h, read-out: GI
CCRF-CEM = experiment: Cytotoxicity against human CCRF-CEM cells at 10 uM after 48 hrs by SRB assay; conditions: read-out: GI
T47D = experiment: Cytotoxicity against human T47D cells at 10 uM after 48 hrs by SRB assay; conditions: read-out: GI
NCI-H23 = experiment: Cytotoxicity against human NCI-H23 cells at 10 uM after 48 hrs by SRB assay; conditions: NCI-H23, 48 h, read-out: GI
[1] = Cytotoxicity against human HCT15 cells at 10 uM after 48 hrs by SRB assay; conditions: HCT-15, 48 h, read-out: GI
M14 = experiment: Cytotoxicity against human M14 cells at 10 uM after 48 hrs by SRB assay; conditions: M14, 48 h, read-out: GI
[2] = Cytotoxicity against human OVCAR8 cells at 10 uM after 48 hrs by SRB assay; conditions: OVCAR-8, 48 h, read-out: GI
[3] = Cytotoxicity against human HCT116 cells at 10 uM after 48 hrs by SRB assay; conditions: HCT-116, 48 h, read-out: GI
SK-OV-3 = experiment: Cytotoxicity against human SKOV3 cells at 10 uM after 48 hrs by SRB assay
[4] = Cytotoxicity against human OVCAR3 cells at 10 uM after 48 hrs by SRB assay; conditions: OVCAR-3, 48 h, read-out: GI
K562 = experiment: Cytotoxicity against human K562 cells at 10 uM after 48 hrs by SRB assay; conditions: K562, 48 h, read-out: GI
SR = experiment: Cytotoxicity against human SR cells at 10 uM after 48 hrs by SRB assay; conditions: read-out: GI
NCI-H226 = experiment: Cytotoxicity against human NCI-H226 cells at 10 uM after 48 hrs by SRB assay; conditions: NCI-H226, 48 h, read-out: GI
[5] = Cytotoxicity against human SNB19 cells at 10 uM after 48 hrs by SRB assay; conditions: SNB-19, 48 h, read-out: GI
SK-MEL-28 = experiment: Cytotoxicity against human SK-MEL-28 cells at 10 uM after 48 hrs by SRB assay
[6] = Cytotoxicity against human SW620 cells at 10 uM after 48 hrs by SRB assay; conditions: SW-620, 48 h, read-out: GI
[7] = Cytotoxicity against human Hs 578T cells at 10 uM after 48 hrs by SRB assay; conditions: read-out: GI
HCC 2998 = experiment: Cytotoxicity against human HCC2998 cells at 10 uM after 48 hrs by SRB assay
A549 = experiment: Cytotoxicity against human A549 cells at 10 uM after 48 hrs by SRB assay; conditions: A549, 48 h, read-out: GI
MCF7 = experiment: Cytotoxicity against human MCF7 cells at 10 uM after 48 hrs by SRB assay; conditions: MCF7, 48 h, read-out: GI
MDA-MB-468 = experiment: Cytotoxicity against human MDA-MB-468 cells at 10 uM after 48 hrs by SRB assay; conditions: MDA-MB-468, 48 h, read-out: GI
SN12C = experiment: Cytotoxicity against human SN12C cells at 10 uM after 48 hrs by SRB assay; conditions: read-out: GI
ACHN = experiment: Cytotoxicity against human ACHN cells at 10 uM after 48 hrs by SRB assay; conditions: read-out: GI
U-251 = experiment: Cytotoxicity against human U251 cells at 10 uM after 48 hrs by SRB assay; conditions: U-251, 48 h, read-out: GI
[8] = Cytotoxicity against human SF539 cells at 10 uM after 48 hrs by SRB assay; conditions: SF-539, 48 h, read-out: GI
[9] = Cytotoxicity against human MOLT4 cells at 10 uM after 48 hrs by SRB assay; conditions: MOLT-4, 48 h, read-out: GI
IGROV-1 = experiment: Cytotoxicity against human IGROV1 cells at 10 uM after 48 hrs by SRB assay
[10] = Cytotoxicity against human HOP62 cells at 10 uM after 48 hrs by SRB assay; conditions: HOP-62, 48 h, read-out: GI
MDA-MB-435 = experiment: Cytotoxicity against human MDA-MB-435 cells at 10 uM after 48 hrs by SRB assay; conditions: MDA-MB-435, 48 h, read-out: GI
CAKI-1 = experiment: Cytotoxicity against human Caki1 cells at 10 uM after 48 hrs by SRB assay
[11] = Cytotoxicity against human RPMI8226 cells at 10 uM after 48 hrs by SRB assay; conditions: RPMI-8226, 48 h, read-out: GI
786-0 = experiment: Cytotoxicity against human 786-0 cells at 10 uM after 48 hrs by SRB assay; conditions: 786-0, 48 h, read-out: GI
[12] = Cytotoxicity against human UO31 cells at 10 uM after 48 hrs by SRB assay; conditions: UO-31, 48 h, read-out: GI
UACC-257 = experiment: Cytotoxicity against human UACC257 cells at 10 uM after 48 hrs by SRB assay
LOX IMVI = experiment: Cytotoxicity against human LOXIMVI cells at 10 uM after 48 hrs by SRB assay
Malme-3M = experiment: Cytotoxicity against human MALME-3M cells at 10 uM after 48 hrs by SRB assay; conditions: read-out: GI
[13] = Cytotoxicity against human RXF393 cells at 10 uM after 48 hrs by SRB assay; conditions: RXF 393, 48 h, read-out: GI
OVCAR-4 = experiment: Cytotoxicity against human OVCAR4 cells at 10 uM after 48 hrs by SRB assay
NCI-H322M = experiment: Cytotoxicity against human NCI-H322M cells at 10 uM after 48 hrs by SRB assay
[14] = Cytotoxicity against human NCI-ADR-RES cells at 10 uM after 48 hrs by SRB assay; conditions: read-out: GI
[15] = Cytotoxicity against human PC3 cells at 10 uM after 48 hrs by SRB assay; conditions: PC-3, 48 h, read-out: GI
DU-145 = experiment: Cytotoxicity against human DU145 cells at 10 uM after 48 hrs by SRB assay
[16] = Cytotoxicity against human COLO205 cells at 10 uM after 48 hrs by SRB assay; conditions: COLO 205, 48 h, read-out: GI
KM12 = experiment: Cytotoxicity against human KM12 cells at 10 uM after 48 hrs by SRB assay; conditions: KM12, 48 h, read-out: GI
[17] = Cytotoxicity against human BT549 cells at 10 uM after 48 hrs by SRB assay; conditions: BT-549, 48 h, read-out: GI
[18] = Cytotoxicity against human UACC62 cells at 10 uM after 48 hrs by SRB assay; conditions: UACC-62, 48 h, read-out: GI
[19] = Cytotoxicity against human HOP92 cells at 10 uM after 48 hrs by SRB assay; conditions: HOP-92, 48 h, read-out: GI
[20] = Cytotoxicity against human SNB75 cells at 10 uM after 48 hrs by SRB assay; conditions: SNB-75, 48 h, read-out: GI
MDA-MB-231 = experiment: Cytotoxicity against human MDA-MB-231 cells at 10 uM after 48 hrs by SRB assay; conditions: MDA-MB-231, 48 h, read-out: GI
A498 = experiment: Cytotoxicity against human A498 cells at 10 uM after 48 hrs by SRB assay; conditions: A498, 48 h, read-out: GI
[21] = Cytotoxicity against human SF295 cells at 10 uM after 48 hrs by SRB assay; conditions: SF-295, 48 h, read-out: GI
HT-29 = experiment: Cytotoxicity against human HT-29 cells at 10 uM after 48 hrs by SRB assay
NCI-H522 = experiment: Cytotoxicity against human NCI-H522 cells at 10 uM after 48 hrs by SRB assay; conditions: NCI-H522, 48 h, read-out: GI
SK-MEL-5 = experiment: Cytotoxicity against human SK-MEL-5 cells at 10 uM after 48 hrs by SRB assay; conditions: SK-MEL-5, 48 h, read-out: GI
SF-268 = experiment: Cytotoxicity against human SF268 cells at 10 uM after 48 hrs by SRB assay
TK-10 = experiment: Cytotoxicity against human TK10 cells at 10 uM after 48 hrs by SRB assay

SMILES: Cc1nc2ccc(Nc3nc(NCCO)nc(Nc4ccc(F)cc4)n3)cc2n1Cc1ccccc1
- inhibition of growth at 10 µM (NCI-H460): 4.15%
- inhibition of growth at 10 µM (CCRF-CEM): 25.3%
- inhibition of growth at 10 µM (T47D): 39.3%
- inhibition of growth at 10 µM (NCI-H23): 6.24%
- inhibition of growth at 10 µM [1]: 8.36%
- inhibition of growth at 10 µM (M14): 6.68%
- inhibition of growth at 10 µM [2]: 4.04%
- inhibition of growth at 10 µM [3]: 13.3%
- growth inhibition (GI) (SK-OV-3): inactive
- inhibition of growth at 10 µM [4]: 3.09%
- inhibition of growth at 10 µM (K562): 25.7%
- inhibition of growth at 10 µM (SR): 28.3%
- inhibition of growth at 10 µM (NCI-H226): 11.1%
- inhibition of growth at 10 µM [5]: 2.43%
- growth inhibition (GI) (SK-MEL-28): inactive
- inhibition of growth at 10 µM [6]: 0.58%
- inhibition of growth at 10 µM [7]: 8.56%
- growth inhibition (GI) (HCC 2998): inactive
- inhibition of growth at 10 µM (A549): 13.8%
- inhibition of growth at 10 µM (MCF7): 19.8%
- inhibition of growth at 10 µM (MDA-MB-468): 23%
- inhibition of growth at 10 µM (SN12C): 1.6%
- inhibition of growth at 10 µM (ACHN): 4.66%
- inhibition of growth at 10 µM (U-251): 6.96%
- inhibition of growth at 10 µM [8]: 3.59%
- inhibition of growth at 10 µM [9]: 27.5%
- growth inhibition (GI) (IGROV-1): inactive
- inhibition of growth at 10 µM [10]: 0.23%
- inhibition of growth at 10 µM (MDA-MB-435): 2.54%
- growth inhibition (GI) (CAKI-1): inactive
- inhibition of growth at 10 µM [11]: 33.7%
- inhibition of growth at 10 µM (786-0): 11.9%
- inhibition of growth at 10 µM [12]: 13.2%
- growth inhibition (GI) (UACC-257): inactive
- growth inhibition (GI) (LOX IMVI): inactive
- inhibition of growth at 10 µM (Malme-3M): 6.95%
- inhibition of growth at 10 µM [13]: 26.1%
- growth inhibition (GI) (OVCAR-4): inactive
- growth inhibition (GI) (NCI-H322M): inactive
- inhibition of growth at 10 µM [14]: 18.1%
- inhibition of growth at 10 µM [15]: 0.89%
- growth inhibition (GI) (DU-145): inactive
- inhibition of growth at 10 µM [16]: 6.67%
- inhibition of growth at 10 µM (KM12): 7.5%
- inhibition of growth at 10 µM [17]: 20.6%
- inhibition of growth at 10 µM [18]: 6.56%
- inhibition of growth at 10 µM [19]: 19.4%
- inhibition of growth at 10 µM [20]: 8.89%
- inhibition of growth at 10 µM (MDA-MB-231): 7.95%
- inhibition of growth at 10 µM (A498): 25.3%
- inhibition of growth at 10 µM [21]: 11%
- growth inhibition (GI) (HT-29): inactive
- inhibition of growth at 10 µM (NCI-H522): 20.4%
- inhibition of growth at 10 µM (SK-MEL-5): 26%
- growth inhibition (GI) (SF-268): inactive
- growth inhibition (GI) (TK-10): inactive
